Data taken from US9938322B2, “β-hairpin peptidomimetics” (priority 2013, dated 2018).
Where a SMILES comes first, the peptide text is derived from it. [ ]: non-standard residue; d: D form. Ala(4-thiazolyl) = N[C@@H](Cc1cscn1)C(=O)O; Phe(4-NH2) = Nc1ccc(C[C@H](N)C(=O)O)cc1; Pro(3S-OH) = O=C(O)[C@H]1NCC[C@@H]1O; Dap(CONH2) = NC(=O)NC[C@H](N)C(=O)O; Cha = N[C@@H](CC1CCCCC1)C(=O)O; Chg = N[C@H](C(=O)O)C1CCCCC1; Tle = CC(C)(C)[C@H](N)C(=O)O; dDab = NCC[C@@H](N)C(=O)O; Orn = NCCC[C@H](N)C(=O)O; Dab = NCC[C@H](N)C(=O)O; Nva = CCC[C@H](N)C(=O)O; Dap = NC[C@H](N)C(=O)O

Test system: human red blood cells (hRBC)
Assay: Hemolysis of human red blood cells
Format: cell-based
Settings: red cells of human, 1 h, 100
In short: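 Washed fresh human erythrocytes (20% v/v, about 0.9×10^9 cells/ml final) incubated with peptide at 100 μg/ml for 1 h at 37° C with shaking. Supernatant OD540 read; hemolysis expressed relative to 2.5% Triton X-100 (100%) and PBS with 0.001% acetic acid (0%).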

Compound | Hemolysis at 100 μg/ml
CC(C)[C@@H]1NC(=O)[C@@H]2CCCN2C(=O)[C@H]2CCCN2C(=O)[C@H](CO)NC(=O)[C@H](C)NC(=O)[C@H](C(C)(C)C)NC(=O)[C@H](CCN)NC(=O)[C@H](Cc2c[nH]c3ccccc23)NC(=O)[C@H](CCN)NC(=O)[C@@H](CCN)NC(=O)[C@H](CCCN)NC(=O)[C@H](CCN)NC(=O)[C@H](Cc2ccc(O)cc2)NC(=O)[C@H](C)NC1=O [compound 46] (cyclo(VAY[Dab][Orn][dDab][Dab]W[Dab][Tle]AS[dP]P)) | 1%
CC(C)C[C@@H]1NC(=O)[C@@H]2[C@@H](O)CCN2C(=O)[C@H]2CCCN2C(=O)[C@H](CO)NC(=O)[C@H](CNC(N)=O)NC(=O)[C@H](C(C)(C)C)NC(=O)[C@H](CCN)NC(=O)[C@H](Cc2c[nH]c3ccccc23)NC(=O)[C@H](CCN)NC(=O)[C@@H](CCN)NC(=O)[C@H](CCCN)NC(=O)[C@H](CCN)NC(=O)[C@H](CC2CCCCC2)NC(=O)[C@H](CO)NC1=O [compound 59] (cyclo([Cha][Dab][Orn][dDab][Dab]W[Dab][Tle][Dap(CONH2)]S[dP][Pro(3S-OH)]LS)) | 1%
C[C@@H]1NC(=O)[C@H](C(C)(C)C)NC(=O)[C@H](CCN)NC(=O)[C@H](Cc2c[nH]c3ccccc23)NC(=O)[C@H](CCN)NC(=O)[C@@H](CCN)NC(=O)[C@H](CCCN)NC(=O)[C@H](CCN)NC(=O)[C@H](CC2CCCCC2)NC(=O)[C@H](CO)NC(=O)[C@H](Cc2cscn2)NC(=O)[C@@H]2CCCN2C(=O)[C@H]2CCCN2C(=O)[C@H](CO)NC1=O [compound 22] (cyclo([Ala(4-thiazolyl)]S[Cha][Dab][Orn][dDab][Dab]W[Dab][Tle]AS[dP]P)) | 0%
CC(C)C[C@@H]1NC(=O)[C@@H]2CCCN2C(=O)[C@H]2CCCN2C(=O)[C@H](CO)NC(=O)[C@H](C)NC(=O)[C@H](C(C)(C)C)NC(=O)[C@H](CCN)NC(=O)[C@H](Cc2c[nH]c3ccccc23)NC(=O)[C@@H](CCN)NC(=O)[C@@H](CCN)NC(=O)[C@H](CCCN)NC(=O)[C@H](CCN)NC(=O)[C@H](Cc2ccc(O)cc2)NC(=O)[C@H](CO)NC1=O [compound 155] (cyclo(LSY[Dab][Orn][dDab][dDab]W[Dab][Tle]AS[dP]P)) | 0%
CC(C)C[C@@H]1NC(=O)[C@@H]2CCCN2C(=O)[C@H]2CCCN2C(=O)[C@H](CO)NC(=O)[C@H](CO)NC(=O)[C@H](C(C)(C)C)NC(=O)[C@H](CCN)NC(=O)[C@H](Cc2c[nH]c3ccccc23)NC(=O)[C@H](CCN)NC(=O)[C@@H](CCN)NC(=O)[C@H](CCCN)NC(=O)[C@H](CCN)NC(=O)[C@H](Cc2ccc(O)cc2)NC(=O)[C@H](CO)NC1=O [compound 117] (cyclo(LSY[Dab][Orn][dDab][Dab]W[Dab][Tle]SS[dP]P)) | 3%
C[C@@H]1NC(=O)[C@H](C2CCCCC2)NC(=O)[C@H](CCN)NC(=O)[C@H](Cc2c[nH]c3ccccc23)NC(=O)[C@H](CCN)NC(=O)[C@@H](CCN)NC(=O)[C@H](CCCN)NC(=O)[C@H](CCN)NC(=O)[C@H](C(C)(C)C)NC(=O)[C@H](CO)NC(=O)[C@H](Cc2ccc(O)cc2)NC(=O)[C@@H]2CCCN2C(=O)[C@H]2CCCN2C(=O)[C@H](CO)NC1=O [compound 69] (cyclo(YS[Tle][Dab][Orn][dDab][Dab]W[Dab][Chg]AS[dP]P)) | 7%
CC(C)C[C@@H]1NC(=O)[C@@H]2CCCN2C(=O)[C@H]2CCCN2C(=O)[C@H](CO)NC(=O)[C@H](C)NC(=O)[C@H](C(C)(C)C)NC(=O)[C@H](CCN)NC(=O)[C@H](Cc2c[nH]c3ccccc23)NC(=O)[C@H](CN)NC(=O)[C@@H](CCN)NC(=O)[C@H](CCCN)NC(=O)[C@H](CCN)NC(=O)[C@H](Cc2ccc(O)cc2)NC(=O)[C@H](CO)NC1=O [Ex. 103] (cyclo(LSY[Dab][Orn][dDab][Dap]W[Dab][Tle]AS[dP]P)) | 1%
C[C@@H]1NC(=O)[C@H](C(C)(C)C)NC(=O)[C@H](CCN)NC(=O)[C@H](Cc2c[nH]c3ccccc23)NC(=O)[C@H](CCN)NC(=O)[C@@H](CCN)NC(=O)[C@H](CCCN)NC(=O)[C@H](CCN)NC(=O)[C@H](CC2CCCCC2)NC(=O)[C@H](CNC(=O)[C@@H](N)[C@@H](C)O)NC(=O)[C@H](Cc2c[nH]c3ccccc23)NC(=O)[C@@H]2CCCN2C(=O)[C@H]2CCCN2C(=O)[C@H](CO)NC1=O [compound 14] (cyclo(W[Dap](Thr)[Cha][Dab][Orn][dDab][Dab]W[Dab][Tle]AS[dP]P)) | 0%
CC(C)C[C@@H]1NC(=O)[C@@H]2CCCN2C(=O)[C@H]2CCCN2C(=O)[C@H](CO)NC(=O)[C@H]([C@@H](C)O)NC(=O)[C@H](C(C)(C)C)NC(=O)[C@H](CCN)NC(=O)[C@H](Cc2c[nH]c3ccccc23)NC(=O)[C@H](CCN)NC(=O)[C@@H](CCN)NC(=O)[C@H](CCCN)NC(=O)[C@H](CCN)NC(=O)[C@H](Cc2ccc(O)cc2)NC(=O)[C@H]([C@@H](C)O)NC1=O [compound 122] (cyclo(LTY[Dab][Orn][dDab][Dab]W[Dab][Tle]TS[dP]P)) | 0%
CCC[C@@H]1NC(=O)[C@@H]2CCCN2C(=O)[C@H]2CCCN2C(=O)[C@H](CO)NC(=O)[C@H](C)NC(=O)[C@H](C2CCCCC2)NC(=O)[C@H](CCN)NC(=O)[C@H](Cc2c[nH]c3ccccc23)NC(=O)[C@H](CCN)NC(=O)[C@@H](CCN)NC(=O)[C@H](CCCN)NC(=O)[C@H](CCN)NC(=O)[C@H](Cc2ccc(O)cc2)NC(=O)[C@H](CO)NC1=O [compound 89] (cyclo([Nva]SY[Dab][Orn][dDab][Dab]W[Dab][Chg]AS[dP]P)) | 0%
CC(C)C[C@@H]1NC(=O)[C@@H]2CCCN2C(=O)[C@H]2CCCN2C(=O)[C@H](CO)NC(=O)[C@H](CO)NC(=O)[C@H](C(C)(C)C)NC(=O)[C@H](CCN)NC(=O)[C@H](Cc2c[nH]c3ccccc23)NC(=O)[C@H](CCN)NC(=O)[C@@H](CCN)NC(=O)[C@H](CCCN)NC(=O)[C@H](CCN)NC(=O)[C@H](CC2CCCCC2)NC(=O)[C@H](C)NC1=O [compound 152] (cyclo(LA[Cha][Dab][Orn][dDab][Dab]W[Dab][Tle]SS[dP]P)) | 5%
C[C@@H]1NC(=O)[C@H](C(C)(C)C)NC(=O)[C@H](CCN)NC(=O)[C@H](Cc2c[nH]c3ccccc23)NC(=O)[C@H](CCN)NC(=O)[C@@H](CCN)NC(=O)[C@H](CCCN)NC(=O)[C@H](CCN)NC(=O)[C@H](Cc2ccc(O)cc2)NC(=O)[C@H](CN)NC(=O)[C@H](Cc2ccccc2)NC(=O)[C@@H]2CCCN2C(=O)[C@H]2CCCN2C(=O)[C@H](CO)NC1=O [compound 160] (cyclo(F[Dap]Y[Dab][Orn][dDab][Dab]W[Dab][Tle]AS[dP]P)) | 1%
CC(C)C[C@@H]1NC(=O)[C@@H]2CCCN2C(=O)[C@H]2CCCN2C(=O)[C@H]([C@@H](C)O)NC(=O)[C@H](CO)NC(=O)[C@H](C(C)(C)C)NC(=O)[C@H](CCN)NC(=O)[C@H](Cc2c[nH]c3ccccc23)NC(=O)[C@H](CCN)NC(=O)[C@@H](CCN)NC(=O)[C@H](CCCN)NC(=O)[C@H](CCN)NC(=O)[C@H](Cc2ccc(O)cc2)NC(=O)[C@H](C)NC1=O [compound 131] (cyclo(LAY[Dab][Orn][dDab][Dab]W[Dab][Tle]ST[dP]P)) | 0.1%
CC(C)C[C@@H]1NC(=O)[C@@H]2CCCN2C(=O)[C@H]2CCCN2C(=O)[C@H](CO)NC(=O)[C@H](C)NC(=O)[C@H](C(C)(C)C)NC(=O)[C@H](CCN)NC(=O)[C@H](Cc2c[nH]c3ccccc23)NC(=O)[C@H](CCN)NC(=O)[C@@H](CCN)NC(=O)[C@H](CCCN)NC(=O)[C@H](CCCN)NC(=O)[C@H](Cc2ccc(O)cc2)NC(=O)[C@H](CO)NC1=O [compound 87] (cyclo(LSY[Orn][Orn][dDab][Dab]W[Dab][Tle]AS[dP]P)) | 1%
C[C@@H]1NC(=O)[C@H](Cc2c[nH]c3ccccc23)NC(=O)[C@@H]2CCCN2C(=O)[C@H]2CCCN2C(=O)[C@H](CO)NC(=O)[C@H](C)NC(=O)[C@H](C(C)(C)C)NC(=O)[C@H](CCN)NC(=O)[C@H](Cc2c[nH]c3ccccc23)NC(=O)[C@H](CCN)NC(=O)[C@@H](CCN)NC(=O)[C@H](CCCN)NC(=O)[C@H](CCN)NC(=O)[C@H](C2CCCCC2)NC1=O [compound 3] (cyclo(WA[Chg][Dab][Orn][dDab][Dab]W[Dab][Tle]AS[dP]P)) | 2.5%
CC[C@H](C)[C@@H]1NC(=O)[C@@H]2CCCN2C(=O)[C@H]2CCCN2C(=O)[C@H](CO)NC(=O)[C@H](C)NC(=O)[C@H](C(C)(C)C)NC(=O)[C@H](CCN)NC(=O)[C@H](Cc2c[nH]c3ccccc23)NC(=O)[C@H](CCN)NC(=O)[C@@H](CCN)NC(=O)[C@H](CCCN)NC(=O)[C@H](CCN)NC(=O)[C@H](Cc2ccc(N)cc2)NC(=O)[C@H](CO)NC1=O [compound 83] (cyclo(IS[Phe(4-NH2)][Dab][Orn][dDab][Dab]W[Dab][Tle]AS[dP]P)) | 0.5%
CC(C)C[C@@H]1NC(=O)[C@@H]2CCCN2C(=O)[C@H]2CCCN2C(=O)[C@H](CO)NC(=O)[C@H]([C@@H](C)O)NC(=O)[C@H](C(C)(C)C)NC(=O)[C@H](CCN)NC(=O)[C@H](Cc2c[nH]c3ccccc23)NC(=O)[C@H](CCN)NC(=O)[C@@H](CCN)NC(=O)[C@H](CCCN)NC(=O)[C@H](CCN)NC(=O)[C@H](Cc2ccc(O)cc2)NC(=O)[C@H](CC(N)=O)NC1=O [compound 120] (cyclo(LNY[Dab][Orn][dDab][Dab]W[Dab][Tle]TS[dP]P)) | 0%
C[C@@H]1NC(=O)[C@H](C(C)(C)C)NC(=O)[C@H](CCN)NC(=O)[C@H](Cc2c[nH]c3ccccc23)NC(=O)[C@H](CCN)NC(=O)[C@@H](CCN)NC(=O)[C@H](CCCN)NC(=O)[C@H](CCN)NC(=O)[C@H](C(C)(C)C)NC(=O)[C@H](CO)NC(=O)[C@H](Cc2c[nH]c3ccccc23)NC(=O)[C@@H]2CCCN2C(=O)[C@H]2CCCN2C(=O)[C@H](CO)NC1=O [compound 68] (cyclo(WS[Tle][Dab][Orn][dDab][Dab]W[Dab][Tle]AS[dP]P)) | 0%
CC(C)C[C@@H]1NC(=O)[C@@H]2CCCN2C(=O)[C@H]2CCCN2C(=O)[C@H](CO)NC(=O)[C@H](CCN)NC(=O)[C@H](C(C)(C)C)NC(=O)[C@H](CCN)NC(=O)[C@H](Cc2c[nH]c3ccccc23)NC(=O)[C@H](CCN)NC(=O)[C@@H](CCN)NC(=O)[C@H](CCCN)NC(=O)[C@H](CCN)NC(=O)[C@H](Cc2ccc(O)cc2)NC(=O)CNC1=O [compound 157] (cyclo(LGY[Dab][Orn][dDab][Dab]W[Dab][Tle][Dab]S[dP]P)) | 1%
